Reference: patent US11479587B2, “Cationic intrinsically disordered antimicrobial peptides” (priority 2016, dated 2022)
Marks after values point to notes of the source that are not given here. No end group written: not given here. *: point of attachment. Biotin = O=C1N[C@H]2[C@H](CS[C@H]2CCCCC(=O)*)N1

tested on: P. aeruginosa ATCC 10145; assay: CFU-assay, P. aeruginosa-cidal activity; type: cell-based, Pseudomonas aeruginosa; details: pH 5.0, 0.25% glucose

Substance	MBC90	MBC100
GHHGGGGGHGGGHGGHGGGGGH (Modified peptide derived from human hornerin (HR 1-18 G+H)) [HR 1-18 G + H]	<0.006 µg/mL	0.09 µg/mL
GRGGSGLGGSSSGGQGGSGSGRSSSRGPY (Modified peptide derived from human hornerin (HR 1-17 4H-4G all H vs G))	75 µg/mL	>300 µg/mL
Biotin-GRHGSGLGHSSSHGQHGSGSGR [Biotin-HR 1-18]	–	>300 µg/mL

same assay, conditions: pH 5.5, 0.25% glucose

Substance	MBC90	MBC100	MBC99
HTHSGHAHGQAGSQHGESGSSVHER (Peptide derived from human filaggrin-2 (FLG-2 2044-2068)) [FLG-22044-2068]	0.038 µg/mL	0.3 µg/mL	–
GHHGGGGGHGGGHGGHGGGGGH (Modified peptide derived from human hornerin (HR 1-18 G+H)) [HR 1-18 G + H]	<0.006 µM	0.09 µM	–
HGHGHGH (Synthetic cationic intrinsically disordered antimicrobial peptide (GH7))	0.25 µM	7.2 µM	–
RGRGRGRGR (Synthetic cationic intrinsically disordered antimicrobial peptide (GR9))	0.22 µM	>400, μM	MBC99: 10.2 μM
GKKGGKGGKGKGK (Synthetic cationic intrinsically disordered antimicrobial peptide (K-GR13))	0.063 µM	2.0 µM	–
HSQRGSGSRQSPSYGRH (Modified peptide derived from human hornerin (HR 2-16 HRNR1128-1144))	–	37.5 (only at μg/ml	–
HAHYGYGQSTQRGSRTTGRRGSGH (Peptide derived from human filaggrin-2 (FLG-2 2232-2255)) [FLG-22232-2255]	0.075 µg/mL	0.59 µg/mL	–
HAHSGHGQSTQR (Peptide derived from human filaggrin-2 (FLG-2 2082-2093)) [FLG-22082-2093]	0.15 µg/mL	2.35 µg/mL	–
HAHSGHGQSTQRGSR (Peptide derived from human filaggrin-2 (FLG-2 2082-2096)) [FLG-22082-2096]	0.15 µg/mL	1.18 µg/mL	–
GSRTAGRRGSGH (Peptide derived from human filaggrin-2 (FLG-2 2094-2105)) [FLG-22094-2105]	–	>300 µg/mL	–
THEHEQSHQRRDRQTHEDKQNRQR (Peptide derived from human repetin (RPTN 747-770)) [RPTN747-770]	0.3 µg/mL	150 µg/mL	–
RGR (Synthetic cationic intrinsically disordered antimicrobial peptide (GR3))	150 µM	>930 µM	–
HGH (Synthetic cationic intrinsically disordered antimicrobial peptide (GH3))	200 µM	>860 µM	–

same assay, conditions: pH 5.5, 0.25% glucose; listed as HR 1-18 G+H

Substance	MBC90	MBC100
GHHGGGGGHGGGHGGHGGGGGH (Modified peptide derived from human hornerin (HR 1-18 G+H)) [HR 1-18 G + H]	< 0.019 µg/mL	0.075 µg/mL

same assay, conditions: pH 5.5, 1% TSB

Substance	MBC90	MBC100
GSGSRQSSGHGRQGSGSGQ (Modified peptide derived from human hornerin (HR 1-16 HRNR 2633-2651)) [HR 1-16 HRNR2633-2651]	>300 µg/mL	>300 µg/mL
GRHGSGSGQSSSYGPYRSGSGWSSSRGPY (Peptide derived from human hornerin (HRNR 1013-1041)) [HRNR1013-1041]	–	>300 µg/mL
GRHGSGLGHSSSHGQH (Peptide derived from human hornerin (HR 1-25 HRNR 2656-2671)) [HR 1-25 HRNR2656-2671]	0.3 µg/mL	4.7 µg/mL
GGSRSGQSSRGERHGSSSGSSSH (Modified peptide derived from human hornerin (HR 1-11 H1-GH2606G))) [HR 1-11 H1-G H2606G]	>300* μg/ml	>300* μg/ml

same assay, conditions: pH 7.0, 0.25% glucose

Substance	MBC90	MBC100
GHHGGGGGHGGGHGGHGGGGGH (Modified peptide derived from human hornerin (HR 1-18 G+H)) [HR 1-18 G + H]	>300 µg/mL	>300 µg/mL
